The values below come from article PMC9133015 (Nature Communications, 2022).

Assay in all cases: Kinase inhibitor specificity profiling (Reaction Biology Corporation)
What all share (assay type): biochemical
Common to all, as to design: % Enzyme Activity (relative to DMSO controls): concentration or dose not given beside the values

Assay [1] deals with T1, panel of 370 protein kinases (Homo sapiens, UniProt P48730).
T1 construct: purchased Reaction Biology Corporation (assay service)
Particulars: 2 h, kinase CK1d; read-out: % Enzyme Activity (relative to DMSO controls).

Assay [2] has as its target T2, panel of 370 protein kinases (Homo sapiens, UniProt Q9P289).
T2 construct: purchased Reaction Biology Corporation (assay service)
Particulars: 2 h, kinase MST4; read-out: % Enzyme Activity (relative to DMSO controls).

Assay [3] addresses T3, panel of 370 protein kinases (Homo sapiens, UniProt P09619).
T3 construct: purchased Reaction Biology Corporation (assay service)
To be noted: 2 h, kinase PDGFRb; read-out: % Enzyme Activity (relative to DMSO controls).

Assay [4] concerns the target T4, panel of 370 protein kinases (Homo sapiens, UniProt P27361).
T4 construct: purchased Reaction Biology Corporation (assay service)
To be noted: 2 h, kinase ERK1; read-out: % Enzyme Activity (relative to DMSO controls).

Assay [5] deals with T5, panel of 370 protein kinases (Homo sapiens, UniProt P10721).
T5 construct: purchased Reaction Biology Corporation (assay service)
Particulars: 2 h, kinase c-Kit; read-out: % Enzyme Activity (relative to DMSO controls).

The target in assay [6] is T6, panel of 370 protein kinases (Homo sapiens, UniProt Q86V86).
T6 construct: purchased Reaction Biology Corporation (assay service)
To be noted: 2 h, kinase PIM3; read-out: % Enzyme Activity (relative to DMSO controls).

For assay [7], the target named is T7, panel of 370 protein kinases (Homo sapiens, UniProt Q9UQB9).
T7 construct: purchased Reaction Biology Corporation (assay service)
T7 sequence (Q9UQB9 whole entry): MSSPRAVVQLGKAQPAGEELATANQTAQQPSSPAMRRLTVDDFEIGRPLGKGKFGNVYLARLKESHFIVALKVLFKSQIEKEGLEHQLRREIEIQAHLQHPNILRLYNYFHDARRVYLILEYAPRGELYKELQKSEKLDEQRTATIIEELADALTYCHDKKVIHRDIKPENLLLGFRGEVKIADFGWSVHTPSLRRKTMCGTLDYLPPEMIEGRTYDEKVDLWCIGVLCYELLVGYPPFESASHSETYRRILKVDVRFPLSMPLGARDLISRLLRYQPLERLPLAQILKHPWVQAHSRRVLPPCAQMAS
Particulars: 2 h, kinase AURORA C; read-out: % Enzyme Activity (relative to DMSO controls).

The target of assay [8] is T8, panel of 370 protein kinases (Homo sapiens, UniProt Q86UX6).
T8 construct: purchased Reaction Biology Corporation (assay service)
T8 sequence (Q86UX6 whole entry): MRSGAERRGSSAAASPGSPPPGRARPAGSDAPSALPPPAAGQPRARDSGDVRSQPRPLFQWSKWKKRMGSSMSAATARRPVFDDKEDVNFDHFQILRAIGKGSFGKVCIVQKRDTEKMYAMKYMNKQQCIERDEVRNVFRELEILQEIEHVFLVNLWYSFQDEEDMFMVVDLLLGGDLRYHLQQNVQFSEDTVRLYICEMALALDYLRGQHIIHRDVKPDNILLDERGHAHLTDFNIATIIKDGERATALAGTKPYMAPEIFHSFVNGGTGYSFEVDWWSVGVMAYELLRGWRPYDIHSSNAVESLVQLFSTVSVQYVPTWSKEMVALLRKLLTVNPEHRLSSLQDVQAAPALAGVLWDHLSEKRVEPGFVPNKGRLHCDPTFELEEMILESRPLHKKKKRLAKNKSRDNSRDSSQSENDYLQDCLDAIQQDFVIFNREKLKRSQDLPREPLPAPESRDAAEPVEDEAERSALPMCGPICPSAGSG
Particulars: 2 h, kinase STK32C/YANK3; read-out: % Enzyme Activity (relative to DMSO controls).

Assay [9] has as its target T9, panel of 370 protein kinases (Homo sapiens, UniProt Q6P5Z2).
T9 construct: purchased Reaction Biology Corporation (assay service)
To be noted: kinase PKN3/PRK3.

For assay [10], the target named is T10, panel of 370 protein kinases (Homo sapiens, UniProt P49336).
T10 construct: purchased Reaction Biology Corporation (assay service)
T10 sequence (P49336 whole entry): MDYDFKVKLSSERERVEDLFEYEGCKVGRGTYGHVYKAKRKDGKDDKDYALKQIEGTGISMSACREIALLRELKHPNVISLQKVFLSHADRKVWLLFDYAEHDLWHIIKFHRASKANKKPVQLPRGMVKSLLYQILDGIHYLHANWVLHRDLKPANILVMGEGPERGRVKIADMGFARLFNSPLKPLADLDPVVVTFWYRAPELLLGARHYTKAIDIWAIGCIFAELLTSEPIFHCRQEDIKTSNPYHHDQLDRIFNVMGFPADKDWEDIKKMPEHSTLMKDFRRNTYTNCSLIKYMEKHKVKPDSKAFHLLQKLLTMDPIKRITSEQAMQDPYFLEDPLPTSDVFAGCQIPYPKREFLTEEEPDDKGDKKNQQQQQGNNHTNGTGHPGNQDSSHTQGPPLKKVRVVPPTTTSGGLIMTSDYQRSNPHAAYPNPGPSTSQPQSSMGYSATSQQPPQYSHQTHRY
Particulars: kinase CDK8/cyclin C.

Assay [11] deals with T11, panel of 370 protein kinases (Homo sapiens, UniProt Q9UBE8).
T11 construct: purchased Reaction Biology Corporation (assay service)
To be noted: 2 h, kinase NLK; read-out: % Enzyme Activity (relative to DMSO controls).

In assay [12] the target is T12, panel of 370 protein kinases (Homo sapiens, UniProt P51957).
T12 construct: purchased Reaction Biology Corporation (assay service)
T12 sequence (P51957 whole entry): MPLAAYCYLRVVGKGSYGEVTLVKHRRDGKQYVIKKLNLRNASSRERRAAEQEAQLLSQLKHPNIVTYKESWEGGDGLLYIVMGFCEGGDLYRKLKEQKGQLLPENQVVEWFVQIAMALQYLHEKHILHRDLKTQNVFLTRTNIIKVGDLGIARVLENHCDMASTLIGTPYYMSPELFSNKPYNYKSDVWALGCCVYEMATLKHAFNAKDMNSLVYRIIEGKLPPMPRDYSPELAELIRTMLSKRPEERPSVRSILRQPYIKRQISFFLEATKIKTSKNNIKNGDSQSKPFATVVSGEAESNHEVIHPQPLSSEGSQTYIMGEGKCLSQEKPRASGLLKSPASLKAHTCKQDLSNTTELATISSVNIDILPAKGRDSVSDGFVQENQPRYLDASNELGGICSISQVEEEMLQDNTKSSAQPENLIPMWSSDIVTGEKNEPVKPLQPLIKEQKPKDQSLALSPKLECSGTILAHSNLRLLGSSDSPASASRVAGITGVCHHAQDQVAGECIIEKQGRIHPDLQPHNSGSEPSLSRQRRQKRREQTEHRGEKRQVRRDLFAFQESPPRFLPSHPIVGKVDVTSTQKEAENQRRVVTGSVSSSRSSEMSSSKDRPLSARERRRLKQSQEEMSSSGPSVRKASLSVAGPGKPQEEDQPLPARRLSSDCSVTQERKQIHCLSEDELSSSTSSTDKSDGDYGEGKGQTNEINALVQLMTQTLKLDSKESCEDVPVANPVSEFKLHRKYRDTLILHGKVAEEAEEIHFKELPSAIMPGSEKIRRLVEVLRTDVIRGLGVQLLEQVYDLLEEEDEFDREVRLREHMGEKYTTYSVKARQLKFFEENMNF
To be noted: 2 h, kinase NEK4; read-out: % Enzyme Activity (relative to DMSO controls).

The target of assay [13] is T13, panel of 370 protein kinases (Homo sapiens, UniProt Q13557).
T13 construct: purchased Reaction Biology Corporation (assay service)
To be noted: 2 h, kinase CAMK2d; read-out: % Enzyme Activity (relative to DMSO controls).

Assay [14] has as its target T14, panel of 370 protein kinases (Homo sapiens, UniProt P07949).
T14 construct: purchased Reaction Biology Corporation (assay service)
Particulars: 2 h, kinase RET; read-out: % Enzyme Activity (relative to DMSO controls).

Assay [15] addresses T15, panel of 370 protein kinases (Homo sapiens, UniProt Q9NR20).
T15 construct: purchased Reaction Biology Corporation (assay service)
Particulars: 2 h, read-out: % Enzyme Activity (relative to DMSO controls), kinase DYRK4.

Assay [16] concerns the target T16, panel of 370 protein kinases (Homo sapiens, UniProt Q96KB5).
T16 construct: purchased Reaction Biology Corporation (assay service)
To be noted: 2 h, kinase PBK/TOPK; read-out: % Enzyme Activity (relative to DMSO controls).

For assay [17], the target named is T17, panel of 370 protein kinases (Homo sapiens, UniProt Q9UKI8).
T17 construct: purchased Reaction Biology Corporation (assay service)
Particulars: 2 h, kinase TLK1; read-out: % Enzyme Activity (relative to DMSO controls).

Assay [18] deals with T18, panel of 370 protein kinases (Homo sapiens, UniProt Q9H1R3).
T18 construct: purchased Reaction Biology Corporation (assay service)
Particulars: 2 h, kinase MLCK2/MYLK2; read-out: % Enzyme Activity (relative to DMSO controls).

Assay [19] concerns the target T19, panel of 370 protein kinases (Homo sapiens, UniProt Q15835).
T19 construct: purchased Reaction Biology Corporation (assay service)
To be noted: 2 h, kinase GRK1; read-out: % Enzyme Activity (relative to DMSO controls).

The target of assay [20] is T20, panel of 370 protein kinases (Homo sapiens, UniProt O00311).
T20 construct: purchased Reaction Biology Corporation (assay service)
To be noted: 2 h, read-out: % Enzyme Activity (relative to DMSO controls), kinase CDC7/DBF4.

The target of assay [21] is T21, panel of 370 protein kinases (Homo sapiens, UniProt Q14680).
T21 construct: purchased Reaction Biology Corporation (assay service)
Particulars: 2 h, kinase MELK; read-out: % Enzyme Activity (relative to DMSO controls).

Values joined by “and” are separate entries in the source; they are usually repeats but may differ in a detail not shown here. Equal values may be shown once.

T9 sequence (Q6P5Z2 whole entry): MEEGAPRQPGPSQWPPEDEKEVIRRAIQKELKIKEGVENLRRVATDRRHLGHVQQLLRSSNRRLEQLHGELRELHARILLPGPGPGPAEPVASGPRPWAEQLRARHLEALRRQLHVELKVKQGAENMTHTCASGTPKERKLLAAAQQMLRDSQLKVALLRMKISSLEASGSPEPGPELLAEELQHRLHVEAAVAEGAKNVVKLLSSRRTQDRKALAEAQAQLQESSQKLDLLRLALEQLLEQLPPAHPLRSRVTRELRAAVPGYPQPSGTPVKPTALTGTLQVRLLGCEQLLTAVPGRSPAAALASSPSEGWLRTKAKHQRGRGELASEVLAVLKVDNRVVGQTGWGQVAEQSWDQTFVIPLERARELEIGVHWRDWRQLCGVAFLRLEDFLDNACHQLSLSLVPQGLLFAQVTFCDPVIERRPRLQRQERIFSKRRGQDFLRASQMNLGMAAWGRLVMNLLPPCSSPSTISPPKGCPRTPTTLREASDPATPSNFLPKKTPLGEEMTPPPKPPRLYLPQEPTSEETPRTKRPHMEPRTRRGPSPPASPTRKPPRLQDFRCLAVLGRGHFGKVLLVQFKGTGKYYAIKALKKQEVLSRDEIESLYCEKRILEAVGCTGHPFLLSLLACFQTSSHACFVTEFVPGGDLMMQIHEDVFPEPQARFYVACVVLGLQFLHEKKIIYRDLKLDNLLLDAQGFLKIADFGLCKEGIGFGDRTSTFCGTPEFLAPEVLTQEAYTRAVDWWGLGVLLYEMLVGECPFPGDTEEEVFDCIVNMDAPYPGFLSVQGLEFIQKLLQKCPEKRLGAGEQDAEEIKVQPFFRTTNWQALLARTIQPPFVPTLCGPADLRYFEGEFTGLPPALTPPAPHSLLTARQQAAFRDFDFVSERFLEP
T4 sequence (P27361 whole entry): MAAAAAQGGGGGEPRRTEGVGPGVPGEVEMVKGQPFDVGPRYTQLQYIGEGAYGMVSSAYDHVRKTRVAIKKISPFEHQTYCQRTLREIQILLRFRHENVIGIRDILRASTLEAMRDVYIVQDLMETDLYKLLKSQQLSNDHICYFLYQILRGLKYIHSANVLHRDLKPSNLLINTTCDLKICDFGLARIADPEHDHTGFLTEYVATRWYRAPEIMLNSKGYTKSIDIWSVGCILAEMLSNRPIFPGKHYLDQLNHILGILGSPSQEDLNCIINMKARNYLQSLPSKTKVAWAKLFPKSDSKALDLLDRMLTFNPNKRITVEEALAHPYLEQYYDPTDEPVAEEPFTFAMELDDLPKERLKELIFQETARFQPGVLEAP
T3 sequence (P09619 33-1106): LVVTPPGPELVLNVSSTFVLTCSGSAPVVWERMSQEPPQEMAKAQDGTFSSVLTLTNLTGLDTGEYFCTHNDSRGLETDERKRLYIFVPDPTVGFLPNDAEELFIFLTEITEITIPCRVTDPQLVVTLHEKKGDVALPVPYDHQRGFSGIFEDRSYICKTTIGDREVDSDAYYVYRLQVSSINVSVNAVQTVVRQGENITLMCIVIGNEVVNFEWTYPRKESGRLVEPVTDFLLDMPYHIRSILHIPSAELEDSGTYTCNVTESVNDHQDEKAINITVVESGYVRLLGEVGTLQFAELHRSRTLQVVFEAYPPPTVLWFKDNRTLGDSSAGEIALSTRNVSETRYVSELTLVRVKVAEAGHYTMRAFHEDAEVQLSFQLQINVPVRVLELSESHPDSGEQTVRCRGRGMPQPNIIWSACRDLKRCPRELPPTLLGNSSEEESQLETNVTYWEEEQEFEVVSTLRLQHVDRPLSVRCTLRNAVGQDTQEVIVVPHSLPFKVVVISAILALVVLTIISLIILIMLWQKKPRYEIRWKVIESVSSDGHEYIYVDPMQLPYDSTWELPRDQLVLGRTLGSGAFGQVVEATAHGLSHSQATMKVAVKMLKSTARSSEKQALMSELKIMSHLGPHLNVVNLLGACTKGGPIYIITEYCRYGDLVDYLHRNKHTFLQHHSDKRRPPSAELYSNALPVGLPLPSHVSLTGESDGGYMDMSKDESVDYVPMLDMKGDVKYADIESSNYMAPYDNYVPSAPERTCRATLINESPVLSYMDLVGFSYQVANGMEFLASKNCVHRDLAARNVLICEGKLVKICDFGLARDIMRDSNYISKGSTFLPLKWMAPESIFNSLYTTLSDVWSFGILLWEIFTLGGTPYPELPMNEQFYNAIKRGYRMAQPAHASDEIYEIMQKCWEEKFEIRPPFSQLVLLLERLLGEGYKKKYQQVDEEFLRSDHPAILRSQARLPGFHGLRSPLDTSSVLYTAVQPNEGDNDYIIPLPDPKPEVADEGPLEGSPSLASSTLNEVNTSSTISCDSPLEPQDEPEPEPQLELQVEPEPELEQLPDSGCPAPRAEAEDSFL

Take `CCN1CCN(C(=O)c2ccc(Nc3ncc(F)c(-c4ccc5nc(N(C)C)sc5c4)n3)nc2)CC1` [YK-2-69]: the remaining activity at 1 µM in assay [1] amounted to 104%; in [2], 98.4%; in assay [3], 97.5%; in assay [4] it was 101%; in [5] it was 94%; in [6], 55.8%. Besides, the remaining activity at 1 µM in assay [7] amounted to 94.7%; in [8], 96.8%; in [11], 97%; in [12], 112%; in [13], 92.8%; in [14] it was 88.1%. Also, the remaining activity at 1 µM in assay [15] stood at 50%; in assay [16] it was 108%; in assay [17] it was 98.4%; in [18], 78.7%; in [19] it was 97.2%; in assay [20] it was 121%. Moreover, the remaining activity at 1 µM in [21] stood at 101%. The “% Enzyme Activity (relative to DMSO controls)” value was 103.56% and 103.10% in assay [9]; 57.28% and 56.07% in assay [10].
